Measured values published in patent publication US8859529B2, “Compounds for the treatment of inflammatory disorders” (Merck Sharp & Dohme Corp., priority 2008, dated 2014).

Tested on: TNF-α production from human whole blood
Test: Inhibition of TNF-α production from human whole blood (hWBA)
Format: cell-based
Conditions: human whole blood diluted 1:1, 1 h pre-incubation, LPS, 3.5 h, TNF-α by ELISA; N/A = Not Active
Protocol: The compounds' ability to inhibit TACE activity can also be determined in human whole blood using the assay conditions described n Example 15 below.
Human whole blood was diluted 1:1 with serum free medium (RPMI, L-glutamine, Pen-Strep, HEPES) and incubated with a test compound in a final volume of 360 μl for 1 h at 37° C. Forty microliters of LPS (10 μg/mL) was then added. Supernatant was collected after 3.5 h incubation and the concentration of TNF-α was determined by ELISA (R&D Systems). The concentration of the test compound which inhibits 50% of the amount of TNF-α from the untreated control was determined.

Row | SMILES | IC50
1 | COc1ccc2c(c1)C(=O)N(C[C@@]1(c3cc4nc(N5C(=O)CCC5C)ccc4o3)NC(=O)N(COC(=O)C(C)(C)C)C1=O)C2 (stereo partly shown) [Compound 10] | 266 nM
2 | COc1ccc2c(c1)C(=O)N(C[C@@]1(c3cc4cnccc4o3)NC(=O)N(CN(C)C(=O)C(C)(C)C)C1=O)C2 [Compound 76.2] | 754 nM
3 | COc1ccc2c(c1)C(=O)N(C[C@@]1(c3cc4cnccc4o3)NC(=O)N(COC(=O)C3(C)CCCCC3)C1=O)C2 [Compound 35.2] | 35.2 nM
4 | COc1ccc2c(c1)C(=O)N(C[C@@]1(c3cc4cnccc4o3)NC(=O)N(C(C)OC(=O)N(C)C)C1=O)C2 (stereo partly shown) [Compound 70] | 774 nM
5 | COc1ccc2c(c1)C(=O)N(C[C@]1(c3cc4ncccc4o3)C(=O)N(C(C)OC(C)=O)C(=O)N1C(C)=O)C2 (stereo partly shown) [Compound 78] | 2120 nM
6 | COc1ccc2c(c1F)C(=O)N(C[C@@]1(c3cc4nc(C(N)=O)ccc4o3)NC(=O)N(COC(=O)C(C)(C)C)C1=O)C2 [Compound 35] | 79 nM
7 | CCOP(=O)(OCC)OCN1C(=O)N[C@@](CN2Cc3ccc(OC)c(F)c3C2=O)(c2cc3nc(N4CCN(CC)CC4)ccc3o2)C1=O [Compound 73] | 255 nM
8 | CCCN1CCN(c2ccc3oc([C@]4(CN5Cc6ccc(OC)c(F)c6C5=O)NC(=O)N(COC(=O)C(C)(C)C)C4=O)cc3n2)CC1 [Compound 40] | 258 nM
9 | COc1ccc2c(c1F)C(=O)N(C[C@]1(c3cc4nc(C(N)=O)ccc4o3)C(=O)N(COC(=O)C(C)(C)C)C(=O)N1COC(=O)C(C)(C)C)C2 [Compound 81] | 159 nM
10 | COc1ccc2c(c1)C(=O)N(C[C@@]1(c3cc4cnccc4o3)NC(=O)N(COP(=O)(OCc3ccccc3)OCc3ccccc3)C1=O)C2 [Compound 74] | 3150 nM
11 | COCCOCC(=O)OCN1C(=O)N[C@@](CN2Cc3ccc(OC)cc3C2=O)(c2cc3cnccc3o2)C1=O [Compound 67.2] | 313 nM
12 | CCOc1ccc2c(c1F)C(=O)N(C[C@]1(c3cc4nc(N5CCN(CC)CC5)ccc4o3)C(=O)N(COC(=O)C(C)(C)C)C(=O)N1COC(=O)C(C)(C)C)C2 [Compound 85] | 381 nM
13 | COc1ccc2c(c1)C(=O)N(C[C@]1(c3cc4cnccc4o3)C(=O)N(COC(=O)OCCN(C)C(=O)OCc3ccccc3)C(=O)N1C(=O)OCCN(C)C(=O)OCc1ccccc1)C2 [Compound 89] | 4890 nM
14 | COc1ccc2c(c1)C(=O)N(C[C@@]1(c3cc4cnccc4o3)NC(=O)N(C(C)OC(=O)N3CCN(C)CC3)C1=O)C2 (stereo partly shown) [Compound 71] | 9920 nM

Now from value to compound:

Row | IC50 | SMILES
15 | 685 nM | COc1ccc2c(c1)C(=O)N(C[C@@]1(c3cc4cnccc4o3)NC(=O)N(C(C)OC(=O)OC3CCOCC3)C1=O)C2 (stereo partly shown) [Compound 61]
16 | 281 nM | COc1ccc2c(c1)C(=O)N(C[C@@]1(c3cc4ncccc4o3)NC(=O)N(COC(=O)C(C)(C)C)C1=O)C2 [Compound 1]
17 | 192 nM | COc1ccc2c(c1F)C(=O)N(C[C@@]1(c3cc4nc(N5C(=O)CCC5C)ccc4o3)NC(=O)N(COC(=O)C(C)(C)C)C1=O)C2 (stereo partly shown) [Compound 9]
18 | 560 nM | COc1ccc2c(c1)C(=O)N(C[C@@]1(c3cc4ncccc4o3)NC(=O)N(COC(=O)c3ccccc3OC(C)=O)C1=O)C2 [Compound 65]
19 | 3150 nM | CCOCCOC(=O)OCN1C(=O)N(C(=O)OCCOCC)[C@@](CN2Cc3ccc(OC)cc3C2=O)(c2cc3cnccc3o2)C1=O [Compound 89.1]
20 | 720 nM | COc1ccc2c(c1)C(=O)N(C[C@@]1(c3cc4cnccc4o3)NC(=O)N(COP(=O)(O)O)C1=O)C2 [Compound 74.1]
21 | 794 nM | COc1ccc2c(c1)C(=O)N(C[C@@]1(C#Cc3ccc(-c4ncccc4OC(=O)C(C)(C)C)cc3)NC(=O)N(COC(=O)C(C)(C)C)C1=O)C2 [Compound 42]
22 | 135 nM | COc1ccc2c(c1F)C(=O)N(C[C@@]1(c3cc4cc5c(cc4o3)C(=O)NCC5)NC(=O)N(COC(=O)C(C)(C)C)C1=O)C2 [Compound 32]
23 | 208 nM | CCOCCOC(=O)OCN1C(=O)N[C@@](CN2Cc3ccc(OC)cc3C2=O)(c2cc3cnccc3o2)C1=O [Compound 63.6]

Tested on: not listed separately
Test: Area under the curve determinations of plasma levels in rats (rrAUC)
Format: in vivo
Conditions: rapid rat AUC of the drug (parent) in plasma; oral 10 mg/kg, fasted rats, blood 0.5-6 h post-dosing
Protocol: To gain insight into the pharmacokinetic properties of the compounds of formula (I), plasma levels of the compounds in rats were determined according to the protocol described in Korfmacher, W. A,; Cox, K. A.; Ng, K. J.; Veals, J.; Hsieh, Y.; Wainhaus, S.; Broske, L; Prelusky, D.; Nomeir, A.; White, R. E. Rapid Commun. Mass Spectrorn, 2001, 15, 335. Briefly, rats, after an overnight fast, were dosed orally with the test compound at a dose of 10 mg/kg in a 5 mL/kg dose volume. Blood was collected at 0.5, 1, 2, 3, 4, and 6 h post-dosing. Mass spectrometry using high performance liquid chromatography was used to identify and measure the concentrations of the test compounds in the plasma at the various time points. The parent ion of each test compound was used to identify and quantitate the compounds in plasma.

Row | SMILES | PK (rrAUC) parent
24 | COc1ccc2c(c1)C(=O)N(C[C@@]1(c3cc4cnccc4o3)NC(=O)N(C(C)OC(=O)OC3COCOC3)C1=O)C2 (stereo partly shown) [Compound 60.1] | 0 µM·h
25 | COc1ccc2c(c1)C(=O)N(C[C@@]1(c3cc4nc(N5C(=O)CCC5C)ccc4o3)NC(=O)N(COC(=O)C(C)(C)C)C1=O)C2 (stereo partly shown) [Compound 10] | 1.202 µM·h
26 | COc1ccc2c(c1)C(=O)N(C[C@@]1(c3cc4ncccc4o3)NC(=O)N(C)C1=O)C2 [Compound 45] | 0.947 µM·h
27 | COc1ccc2c(c1)C(=O)N(C[C@@]1(c3cc4cnccc4o3)NC(=O)N(CN(C)C(=O)C(C)(C)C)C1=O)C2 [Compound 76.2] | 0.31 µM·h
28 | COc1ccc2c(c1)C(=O)N(C[C@@]1(c3cc4cnccc4o3)NC(=O)N(COC(=O)N(C)C)C1=O)C2 [Compound 69] | 13.539 µM·h
29 | COc1ccc2c(c1)C(=O)N(C[C@@]1(c3cc4nc(N5C[C@@H](O)CC5=O)ccc4o3)NC(=O)N(COC(=O)C(C)(C)C)C1=O)C2 [Compound 23] | 60.895 µM·h
30 | CCN1C(=O)N[C@@](CN2Cc3ccc(OC)cc3C2=O)(c2cc3ncccc3o2)C1=O [Compound 46] | 0.868 µM·h
31 | COCN1C(=O)N[C@@](CN2Cc3ccc(OC)c(F)c3C2=O)(c2cc3cc4c(c(F)c3o2)C(=O)NC4)C1=O [Compound 56] | 0 µM·h
32 | COc1ccc2c(c1F)C(=O)N(C[C@@]1(c3cc4c5c(ccc4o3)CNC5=O)NC(=O)N(COC(=O)C(C)(C)C)C1=O)C2 [Compound 8] | 2.193 µM·h
33 | COc1ccc2c(c1)C(=O)N(C[C@]1(c3cc4cnccc4o3)C(=O)N(C(C)OC(=O)OC3COCOC3)C(=O)N1C(=O)OC1COCOC1)C2 (stereo partly shown) [Compound 88] | 0 µM·h
34 | COc1ccc2c(c1)C(=O)N(C[C@@]1(c3cc4cnccc4o3)NC(=O)N(Cc3cccnc3)C1=O)C2 [Compound 48.1] | 0 µM·h
35 | COc1ccc2c(c1F)C(=O)N(C[C@@]1(c3cc4cc5c(c(F)c4o3)C(=O)NC5)NC(=O)N(COC(=O)C(C)(C)C)C1=O)C2 [Compound 7] | 1.898 µM·h
36 | COc1ccc2c(c1)C(=O)N(C[C@@]1(c3cc4cnccc4o3)NC(=O)N(COC(=O)c3ccccc3)C1=O)C2 [Compound 66] | 1.861 µM·h
37 | COCN1C(=O)N[C@@](CN2Cc3ccc(OC)cc3C2=O)(c2cc3ncccc3o2)C1=O [Compound 58] | 2.125 µM·h
38 | CCOC(=O)N(C)CCOC(=O)OCN1C(=O)N[C@@](CN2Cc3ccc(OC)cc3C2=O)(c2cc3cnccc3o2)C1=O [Compound 63.5] | 0 µM·h
39 | COc1ccc2c(c1)C(=O)N(C[C@]1(c3cc4ncccc4o3)C(=O)N(COC(=O)C(C)(C)C)C(=O)N1COC(=O)C(C)(C)C)C2 [Compound 80] | 3.092 µM·h
40 | COc1ccc2c(c1)C(=O)N(C[C@@]1(c3cc4cnccc4o3)NC(=O)N(C(=O)OC3COCOC3)C1=O)C2 [Compound 77] | 0 µM·h
41 | COc1ccc2c(c1)C(=O)N(C[C@@]1(c3cc4cnccc4o3)NC(=O)N(CCN3CCOCC3)C1=O)C2 [Compound 50] | 0 µM·h
42 | COCN1C(=O)N[C@@](CN2Cc3ccc(OC)cc3C2=O)(c2cc3cnccc3o2)C1=O [Compound 52] | 1.072 µM·h
43 | COc1ccc2c(c1F)C(=O)N(C[C@@]1(c3cc4cc([C@@]5(C)NC(=O)NC5=O)c(F)cc4o3)NC(=O)N(COC(=O)C(C)(C)C)C1=O)C2 [Compound 30] | 0.335 µM·h
44 | COc1ccc2c(c1F)C(=O)N(C[C@@]1(c3cc4cc5c(c(F)c4o3)C(=O)NC5)NC(=O)N(COCc3ccccc3)C1=O)C2 [Compound 57] | 2.244 µM·h
45 | CCOCN1C(=O)N[C@@](CN2Cc3ccc(OC)cc3C2=O)(c2cc3cnccc3o2)C1=O [Compound 53] | 5.183 µM·h
46 | COc1ccc2c(c1)C(=O)N(C[C@]1(c3cc4cnccc4o3)C(=O)N(COC(=O)C3CCCCC3)C(=O)N1C(=O)C1CCCCC1)C2 [Compound 87] | 0 µM·h
47 | CCCC(=O)OCN1C(=O)N(C(=O)CCC)[C@@](CN2Cc3ccc(OC)cc3C2=O)(c2cc3cnccc3o2)C1=O [Compound 82] | 0.783 µM·h

The remaining lines, values ahead:

Row | PK (rrAUC) parent | SMILES
48 | 0 µM·h | COc1ccc2c(c1)C(=O)N(C[C@@]1(c3cc4cnccc4o3)NC(=O)N(COC(=O)OC(C)(C)C)C1=O)C2 [Compound 63]
49 | 0 µM·h | COc1ccc2c(c1)C(=O)N(C[C@@]1(c3cc4cnccc4o3)NC(=O)N(C(C)OC(=O)OC3CCOCC3)C1=O)C2 (stereo partly shown) [Compound 61]
50 | 13.101 µM·h | COc1ccc2c(c1)C(=O)N(C[C@@]1(c3cc4ncccc4o3)NC(=O)N(COC(=O)C(C)(C)C)C1=O)C2 [Compound 1]
51 | 4.557 µM·h | COc1ccc2c(c1F)C(=O)N(C[C@@]1(c3cc4nc(N5C(=O)CCC5C)ccc4o3)NC(=O)N(COC(=O)C(C)(C)C)C1=O)C2 (stereo partly shown) [Compound 9]
52 | 0.088 µM·h | COCCOCCOCCN1C(=O)N[C@@](CN2Cc3ccc(OC)cc3C2=O)(c2cc3cnccc3o2)C1=O [Compound 49]
53 | 4.426 µM·h | COc1ccc2c(c1)C(=O)N(C[C@@]1(c3cc4ncccc4o3)NC(=O)N(COC(=O)c3ccccc3OC(C)=O)C1=O)C2 [Compound 65]
54 | 0 µM·h | CCOC(=O)CN1C(=O)N[C@@](CN2Cc3ccc(OC)cc3C2=O)(c2cc3cnccc3o2)C1=O [Compound 58.2]
55 | 0.189 µM·h | COc1ccc2c(c1F)C(=O)N(C[C@@]1(c3cc4cc5c(c(F)c4o3)C(=O)NC5)NC(=O)N(C3OC(=O)c4ccccc43)C1=O)C2 (stereo partly shown) [Compound 75]
56 | 0.571 µM·h | CCCCCCCCOCN1C(=O)N[C@@](CN2Cc3ccc(OC)cc3C2=O)(c2cc3cnccc3o2)C1=O [Compound 54]
57 | 0.019 µM·h | COCCOCCOCCN1C(=O)N[C@@](CN2Cc3ccc(OC)cc3C2=O)(c2cc3ncccc3o2)C1=O [Compound 47]
58 | 0.126 µM·h | COc1ccc2c(c1)C(=O)N(C[C@]1(c3cc4cnccc4o3)C(=O)N(COC(=O)c3ccccc3)C(=O)N1C(=O)c1ccccc1)C2 [Compound 84]
